{"source": "patent US20230365584A1", "about": "“HETEROCYCLIC PERICONDENSED CDC7 KINASE INHIBITORS FOR THE TREATMENT OF CANCER” (SCHRÖDINGER, INC., priority 2020, published 2023)", "note": "Counter-ions that a name gives are not always drawn.", "data": [{"target": "Full length human CDC7 protein co-expressed with DBF4 (Homo sapiens (Human), UniProt O00311)", "sequence (O00311 whole entry)": "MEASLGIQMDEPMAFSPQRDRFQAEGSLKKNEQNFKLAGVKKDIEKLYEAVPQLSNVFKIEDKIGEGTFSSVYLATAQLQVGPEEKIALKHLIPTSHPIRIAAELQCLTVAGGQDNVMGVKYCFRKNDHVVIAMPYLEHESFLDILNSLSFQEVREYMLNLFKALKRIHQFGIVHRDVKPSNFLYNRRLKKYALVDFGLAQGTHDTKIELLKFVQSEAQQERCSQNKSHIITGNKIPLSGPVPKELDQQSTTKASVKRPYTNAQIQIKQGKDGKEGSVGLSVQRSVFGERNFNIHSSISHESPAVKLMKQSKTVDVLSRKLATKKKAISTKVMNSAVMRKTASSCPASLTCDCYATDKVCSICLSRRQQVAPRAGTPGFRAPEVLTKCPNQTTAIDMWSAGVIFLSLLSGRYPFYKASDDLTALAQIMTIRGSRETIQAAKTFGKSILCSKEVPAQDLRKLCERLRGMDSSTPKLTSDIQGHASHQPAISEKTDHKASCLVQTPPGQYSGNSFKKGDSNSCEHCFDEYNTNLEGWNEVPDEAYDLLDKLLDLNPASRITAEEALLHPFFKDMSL", "sequence (Q9UBU7 whole entry partner)": "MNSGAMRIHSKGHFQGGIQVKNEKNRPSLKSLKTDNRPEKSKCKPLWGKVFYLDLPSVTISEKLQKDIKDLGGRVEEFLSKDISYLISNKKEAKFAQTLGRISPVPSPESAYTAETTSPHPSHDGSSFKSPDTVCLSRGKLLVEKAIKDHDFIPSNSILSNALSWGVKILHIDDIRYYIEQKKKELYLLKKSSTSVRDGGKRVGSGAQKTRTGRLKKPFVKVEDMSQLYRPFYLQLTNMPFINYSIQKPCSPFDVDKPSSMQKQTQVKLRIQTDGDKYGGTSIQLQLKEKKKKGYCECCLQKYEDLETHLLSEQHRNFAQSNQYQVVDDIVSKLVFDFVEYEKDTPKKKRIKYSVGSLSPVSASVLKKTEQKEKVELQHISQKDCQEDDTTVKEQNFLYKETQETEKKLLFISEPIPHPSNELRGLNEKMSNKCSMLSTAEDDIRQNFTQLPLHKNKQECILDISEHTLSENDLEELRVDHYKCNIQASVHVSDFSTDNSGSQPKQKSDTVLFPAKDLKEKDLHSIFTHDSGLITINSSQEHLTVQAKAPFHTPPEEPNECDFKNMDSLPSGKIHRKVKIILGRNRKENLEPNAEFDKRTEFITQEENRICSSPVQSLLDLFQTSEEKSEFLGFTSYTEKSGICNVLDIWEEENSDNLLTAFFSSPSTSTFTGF", "test": "CDC7 kinase biochemical assay (ADP-Glo, PDKtide substrate)", "details": "0.1 nM CDC7/DBF4, 1 uM ATP, 10 uM PDKtide, 4 h", "description": "CDC7 Kinase Biochemical Assay Protocol:\nFull length human CDC7 protein co-expressed with DBF4 was purchased from SignalChem (China). CDC7 kinase activity was determined with PDKtide (SignalChem) as a substrate and by measuring ADP production using the ADP-Glo™ Kinase Assay kit (Promega) following the manufacturers instructions. The kinase reaction was performed using the following conditions: Buffer: 40 mM Tris pH 7.5, 20 mM MgCl2, 0.1 mg/ml BSA and 50 uM DTT. Final reaction mix contained 0.1 nM CDC7/DBF4, 1 uM ATP and 10 uM PDKtide. The kinase reaction time was 4 h. The ADP-Glo signal was measured using an EnVision plate reader (PerkinELmer).\nPercent inhibition of CDC7 kinase activity was calculated based on the following formula:\n[formula] • Ssample: the signal of compounds • SHigh Ctrl: the signal of high control (DMSO) • SLow Ctrl: the signal of low control (positive control CDC7 inhibitor)", "units": {"IC50": "nM"}, "values": [{"smiles": "CC(c1[nH]c(=O)c2sc(-c3cn[nH]c3)c3c2c1CCCO3)n1nccn1", "note": "(racemic) [Example 48, 2-(1H-pyrazol-4-yl)-7-[1-(triazol-2-yl)ethyl]-12-oxa-3-thia-6-azatricyclo[6.4.1.0^4,13] trideca-1,4(13),7-trien-5-one]", "IC50": "< 1"}, {"smiles": "C[C@@H](c1[nH]c(=O)c2sc(-c3cn[nH]c3)c3c2c1CCCO3)n1cc(C#N)cn1", "note": "(single isomer, unassigned) [Example 26]", "IC50": "< 1"}, {"smiles": "C[C@H](c1[nH]c(=O)c2sc(-c3cn[nH]c3)c3c2c1CCCO3)n1cc(C#N)cn1", "note": "(single isomer, unassigned) [Example 27]", "IC50": "< 1"}, {"smiles": "C[C@H](O)c1[nH]c(=O)c2sc(-c3cn[nH]c3)c3c2c1CCCO3", "note": "(single isomer, unassigned) [Example 32]", "IC50": "< 1"}, {"smiles": "C[C@@H](O)c1[nH]c(=O)c2sc(-c3cn[nH]c3)c3c2c1CCCO3", "note": "(single isomer, unassigned) [Example 33]", "IC50": "< 1"}, {"smiles": "COC[C@H](c1[nH]c(=O)c2sc(-c3cn[nH]c3)c3c2c1CCCO3)n1cccn1", "note": "(single isomer, unassigned) [Example 35]", "IC50": "< 1"}, {"smiles": "COC[C@@H](c1[nH]c(=O)c2sc(-c3cn[nH]c3)c3c2c1CCCO3)n1cccn1", "note": "(single isomer, unassigned) [Example 36]", "IC50": "< 1"}, {"smiles": "COC[C@H](c1[nH]c(=O)c2sc(-c3cn[nH]c3)c3c2c1CCCO3)N1CCC(F)(F)C1", "note": "(single isomer, unassigned) [Example 37]", "IC50": "1 to 10"}, {"smiles": "COC[C@@H](c1[nH]c(=O)c2sc(-c3cn[nH]c3)c3c2c1CCCO3)N1CCC(F)(F)C1", "note": "(single isomer, unassigned) [Example 38]", "IC50": "1 to 10"}, {"smiles": "COC[C@@H](OC)c1[nH]c(=O)c2sc(-c3cn[nH]c3)c3c2c1CCCO3", "note": "(single isomer, unassigned) [Example 39]", "IC50": "< 1"}, {"smiles": "COC[C@H](OC)c1[nH]c(=O)c2sc(-c3cn[nH]c3)c3c2c1CCCO3", "note": "(single isomer, unassigned) [Example 40]", "IC50": "< 1"}, {"smiles": "C[C@H](c1[nH]c(=O)c2sc(-c3cn[nH]c3)c3c2c1CCCO3)n1ccnn1", "note": "(single isomer, unassigned) [Example 49]", "IC50": "< 1"}, {"smiles": "C[C@@H](c1[nH]c(=O)c2sc(-c3cn[nH]c3)c3c2c1CCCO3)n1ccnn1", "note": "(single isomer, unassigned) [Example 50]", "IC50": "< 1"}, {"smiles": "C[C@@](O)(c1[nH]c(=O)c2sc(-c3cn[nH]c3)c3c2c1CCCO3)C1CC1", "note": "(single isomer, unassigned) [Example 59]", "IC50": "< 1"}, {"smiles": "C[C@](O)(c1[nH]c(=O)c2sc(-c3cn[nH]c3)c3c2c1CCCO3)C1CC1", "note": "(single isomer, unassigned) [Example 60]", "IC50": "< 1"}, {"smiles": "C[C@H]1Cc2c(C(C)(C)O)[nH]c(=O)c3sc(-c4cn[nH]c4)c(c23)O1", "note": "(single isomer, unassigned) [Example 61]", "IC50": "< 1"}, {"smiles": "C[C@@H]1Cc2c(C(C)(C)O)[nH]c(=O)c3sc(-c4cn[nH]c4)c(c23)O1", "note": "(single isomer, unassigned) [Example 62]", "IC50": "< 1"}, {"smiles": "C[C@H]1Cc2c(CN3CCC3)[nH]c(=O)c3sc(-c4cn[nH]c4)c(c23)O1", "note": "(single isomer, unassigned) [Example 63]", "IC50": "< 1"}, {"smiles": "C[C@@H]1Cc2c(CN3CCC3)[nH]c(=O)c3sc(-c4cn[nH]c4)c(c23)O1", "note": "(single isomer, unassigned) [Example 64]", "IC50": "< 1"}, {"smiles": "C[C@@H]1Cc2c(CN3CCC(F)(F)C3)[nH]c(=O)c3sc(-c4cn[nH]c4)c(c23)O1", "note": "(single isomer, unassigned) [Example 65]", "IC50": "< 1"}, {"smiles": "C[C@H]1Cc2c(CN3CCC(F)(F)C3)[nH]c(=O)c3sc(-c4cn[nH]c4)c(c23)O1", "note": "(single isomer, unassigned) [Example 66]", "IC50": "< 1"}, {"smiles": "CC[C@](C)(O)c1[nH]c(=O)c2sc(-c3ccncc3)c3c2c1CCCO3", "note": "(single isomer, unassigned) [Example 71]", "IC50": "< 1"}, {"smiles": "CC[C@@](C)(O)c1[nH]c(=O)c2sc(-c3ccncc3)c3c2c1CCCO3", "note": "(single isomer, unassigned) [Example 72]", "IC50": "< 1"}, {"smiles": "CC[C@](C)(O)c1[nH]c(=O)c2sc(-c3c[nH]nc3C)c3c2c1CCCO3", "note": "(single isomer, unassigned) [Example 73]", "IC50": "≥ 10"}, {"smiles": "CC[C@@](C)(O)c1[nH]c(=O)c2sc(-c3c[nH]nc3C)c3c2c1CCCO3", "note": "(single isomer, unassigned) [Example 74]", "IC50": "≥ 10"}, {"smiles": "C[C@H]1Cc2c(CN3CC(O)C3)[nH]c(=O)c3sc(-c4cn[nH]c4)c(c23)O1", "note": "(single isomer, unassigned) [Example 79]", "IC50": "< 1"}, {"smiles": "C[C@@H]1Cc2c(CN3CC(O)C3)[nH]c(=O)c3sc(-c4cn[nH]c4)c(c23)O1", "note": "(single isomer, unassigned) [Example 80]", "IC50": "< 1"}, {"smiles": "C[C@@H]1Cc2c(CN3CC[C@H]3C)[nH]c(=O)c3sc(-c4cn[nH]c4)c(c23)O1", "note": "(single isomer, unassigned) [Example 81]", "IC50": "< 1"}, {"smiles": "C[C@@H]1Cc2c(CN3CC[C@@H]3C)[nH]c(=O)c3sc(-c4cn[nH]c4)c(c23)O1", "note": "(single isomer, unassigned) [Example 82]", "IC50": "< 1"}, {"smiles": "C[C@H]1Cc2c(CN3CC[C@@H]3C)[nH]c(=O)c3sc(-c4cn[nH]c4)c(c23)O1", "note": "(single isomer, unassigned) [Example 83]", "IC50": "< 1"}, {"smiles": "C[C@@H]1CCN1Cc1[nH]c(=O)c2sc(-c3cn[nH]c3)c3c2c1C[C@H](C)O3", "note": "(single isomer, unassigned) [Example 84]", "IC50": "< 1"}, {"smiles": "CC1Cc2c(CN3CC(F)C3)[nH]c(=O)c3sc(-c4cn[nH]c4)c(c23)O1", "note": "(stereo in doubt) [Example 67, (R)-6-((3-fluoroazetidin-1-yl)methyl)-4-methyl-2-(1H-pyrazol-4-yl)-5,7-dihydro-3-oxa-1-thia-7-azaacenaphthylen-8(4H)-one]", "IC50": "< 1"}, {"smiles": "CC1Cc2c(CN3CC(F)C3)[nH]c(=O)c3sc(-c4cn[nH]c4)c(c23)O1", "note": "(stereo in doubt) [Example 68, (S)-6-((3-fluoroazetidin-1-yl)methyl)-4-methyl-2-(1H-pyrazol-4-yl)-5,7-dihydro-3-oxa-1-thia-7-azaacenaphthylen-8(4H)-one]", "IC50": "< 1"}, {"smiles": "CC1Cc2c(CN3CC[C@H](F)C3)[nH]c(=O)c3sc(-c4cn[nH]c4)c(c23)O1", "note": "(stereo in doubt) [Example 69, (S)-6-(((S)-3-fluoropyrrolidin-1-yl)methyl)-4-methyl-2-(1H-pyrazol-4-yl)-5,7-dihydro-3-oxa-1-thia-7-azaacenaphthylen-8(4H)-one]", "IC50": "< 1"}, {"smiles": "CC1Cc2c(CN3CC[C@H](F)C3)[nH]c(=O)c3sc(-c4cn[nH]c4)c(c23)O1", "note": "(stereo in doubt) [Example 70, (R)-6-(((S)-3-fluoropyrrolidin-1-yl)methyl)-4-methyl-2-(1H-pyrazol-4-yl)-5,7-dihydro-3-oxa-1-thia-7-azaacenaphthylen-8(4H)-one]", "IC50": "< 1"}, {"smiles": "Cc1[nH]c(=O)c2sc(-c3ccncc3)c3c2c1CCO3", "note": "[Example 2, 6-methyl-2-(pyridin-4-yl)-5,7-dihydro-3-oxa-1-thia-7-azaacenaphthylen-8(4H)-one]", "IC50": "< 1"}, {"smiles": "Cc1[nH]c(=O)c2sc(-c3cn[nH]c3)c3c2c1CCO3", "note": "[Example 3, 6-methyl-2-(1H-pyrazol-4-yl)-5,7-dihydro-3-oxa-1-thia-7-azaacenaphthylen-8(4H)-one]", "IC50": "1 to 10"}, {"smiles": "Cc1n[nH]cc1-c1sc2c(=O)[nH]c(C)c3c2c1OCC3", "note": "[Example 4, 6-methyl-2-(3-methyl-1H-pyrazol-4-yl)-5,7-dihydro-3-oxa-1-thia-7-azaacenaphthylen-8(4H)-one]", "IC50": "< 1"}, {"smiles": "Cc1n[nH]cc1-c1sc2c(=O)[nH]c(C)c3c2c1OCCC3", "note": "[Example 6, 5-methyl-1-(3-methyl-1H-pyrazol-4-yl)-4,6,7,8-tetrahydro-3H-9-oxa-2-thia-4-azabenzo[cd]azulen-3-one]", "IC50": "1 to 10"}, {"smiles": "Cc1[nH]c(=O)c2sc(-c3cn[nH]c3)c3c2c1CC(C)O3", "note": "(stereo not drawn) [Example 9, 4,6-dimethyl-2-(1H-pyrazol-4-yl)-5,7-dihydro-3-oxa-1-thia-7-azaacenaphthylen-8(4H)-one]", "IC50": "< 1"}, {"smiles": "O=c1[nH]c(CN2CC[C@H](O)C2)c2c3c(c(-c4ccncc4)sc13)OCCC2", "note": "[Example 10, (S)-5-((3-hydroxypyrrolidin-1-yl)methyl)-1-(pyridin-4-yl)-4,6,7,8-tetrahydro-3H-9-oxa-2-thia-4-azabenzo[cd]azulen-3-one]", "IC50": "1 to 10"}, {"smiles": "O=c1[nH]c(CN2CC[C@H](O)C2)c2c3c(c(-c4cn[nH]c4)sc13)OCCC2", "note": "[Example 11, (S)-5-((3-hydroxypyrrolidin-1-yl)methyl)-1-(1H-pyrazol-4-yl)-4,6,7,8-tetrahydro-3H-9-oxa-2-thia-4-azabenzo[cd]azulen-3-one]", "IC50": "< 1"}, {"smiles": "O=c1[nH]c(CN2CCC2)c2c3c(c(-c4ccncc4)sc13)OCCC2", "note": "[Example 12, 5-(azetidin-1-ylmethyl)-1-(pyridin-4-yl)-4,6,7,8-tetrahydro-3H-9-oxa-2-thia-4-azabenzo[cd]azulen-3-one]", "IC50": "< 1"}, {"smiles": "CC(C)(C)OC(=O)NCc1[nH]c(=O)c2sc(-c3ccncc3)c3c2c1CCCO3", "note": "[Example 14, tert-butyl ((3-oxo-1-(pyridin-4-yl)-4,6,7,8-tetrahydro-3H-9-oxa-2-thia-4-azabenzo[cd]azulen-5-yl)methyl)carbamate]", "IC50": "1 to 10"}, {"smiles": "NCc1[nH]c(=O)c2sc(-c3ccncc3)c3c2c1CCCO3", "note": "[Example 15, 5-(aminomethyl)-1-(pyridin-4-yl)-4,6,7,8-tetrahydro-3H-9-oxa-2-thia-4-azabenzo[cd]azulen-3-one;hydrochloride]", "IC50": "1 to 10"}]}]}
